Among the data in ChEMBL document CHEMBL3714709, “T1R hetero-oligomeric taste receptors, cell lines that express said receptors, and taste compounds” (2008) are Activity and inhibition values, retold here.

Calls of active or inactive are those of the source. No cut-off for these calls is given here.

The target of one test is T1R1/T1R3 (Homo sapiens) (UniProt Q7RTX0+Q7RTX1). The test can be described thus: Activation of human T1R1/T1R3. It counts as protein-complex assay.
For test [1], the target named is T1, Taste receptor type 2 member 105 (Mus musculus) (UniProt Q9JKT4).
T1 sequence (whole entry): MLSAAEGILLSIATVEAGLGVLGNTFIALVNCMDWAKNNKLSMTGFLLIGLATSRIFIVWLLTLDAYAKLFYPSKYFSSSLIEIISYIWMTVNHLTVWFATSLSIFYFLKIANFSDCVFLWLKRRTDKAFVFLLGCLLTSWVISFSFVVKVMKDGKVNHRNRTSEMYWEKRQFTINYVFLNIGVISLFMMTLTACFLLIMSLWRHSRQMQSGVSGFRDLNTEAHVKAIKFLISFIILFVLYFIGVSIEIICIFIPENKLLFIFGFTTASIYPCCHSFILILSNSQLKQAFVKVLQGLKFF
The test can be described thus: Inhibition of mouse T2R5 expressed in HEK293 cells. It counts as cell-based.

Test [2] concerns the target Muscarinic acetylcholine receptor (Homo sapiens) (UniProt P20309+P08173+P11229+P08172+P08912). The experiment in a line: Inhibition of mAChR (unknown origin) expressed in HEK293 cells. It counts as cell-based.

On to `O=C1NS(=O)(=O)c2ccccc21`, for which the outcome on T1R1/T1R3 (Homo sapiens) was inactive. For `N[C@H](Cc1c[nH]c2ccccc12)C(=O)O`, at T1R1/T1R3 (Homo sapiens), the result was inactive. Take `OC[C@H]1O[C@@](CO)(O[C@H]2O[C@H](CO)[C@@H](O)[C@H](O)[C@H]2O)[C@@H](O)[C@@H]1O`: the result at T1R1/T1R3 (Homo sapiens) was inactive. Consider `COc1ccc(OC(C)C(=O)O)cc1` (stereo not given), for which the inhibition entry in test [1] and in test [2] was “inactive” in each case.
